What all share (type): in vivo
Test [1] has as its system Musca domestica. The test can be described thus: whole plant or invertebrate. As to conditions: 24 h, read-out: death rate. On the procedure: The formulations of Compounds of Present Invention 1-1, 1-40 and 1-42 as obtained in Formulation Example 5 were diluted with water, so as to have a concentration of the active ingredient of 500 ppm, to prepare a test drug solution.
A filter paper having a diameter of 5.5 cm was spread on the bottom of a polyethylene cup having the same diameter and 0.7 ml of the test drug solution was added dropwise onto the filter paper, and 30 mg of sucrose was uniformly placed as bait. Into the polyethylene cup, 10 female imagoes of Musca domestica were released, and the cup was sealed with a lid. After 24 hours, the life and death of Musca domestica was examined, the number of dead insects was counted, and the death rate was calculated according to the following equation. Death rate (%) = (Number of dead insects/Number of tested insects) × 100 [formula]

In test [2] the test system is Culex pipiens pallens. The test is described as follows: Test Example 10: Culex pipiens pallens larvae in treated water. To be noted: 24 h, read-out: death rate. An excerpt: 20 last-instar larvae of Culex pipiens pallens were released into the solution. One day later, the life and death of the Culex pipiens pallens was examined, and the number of dead insects was counted to calculate the death rate. Death rate (%) = (Number of dead insects/Number of tested insects) × 100 [formula]

Test [3] relates to Plutella xylostella. The test is described as follows: Test Example 6: spray on cabbage, Plutella xylostella larvae released. To be noted: 120 h, read-out: death rate. The procedure:
On the other hand, on cabbage at the third leaf stage planted in a polyethylene cup was sprayed, at a rate 20 mL/cup, the test drug solution. After the drug solution was dried, the foliage part was cut off, and then placed in a 50 mL volume cup. Five second instar larvae of Plutella xylostella were released into the cup, and the cup was sealed with a lid. After the cup was kept at 25°C for 5 days, the number of dead insects was counted. The death rate was calculated according to the following equation. Death rate (%) = (Number of dead insects/Number of tested insects) × 100 [formula]

The test system of test [4] is Haemaphysalis longicornis. The test is described as follows: Test Example 11: coated screw tube contact test, Haemaphysalis longicornis ticks. As to conditions: 48 h, 2 mg compound in 0.2 mL acetone coated on inner wall of screw tube, unfed nymphal ticks, after 2 days, read-out: death rate. On the procedure:
2 mg of each of Compounds of Present Invention 1-5, 1-24, 1-32 to 1-33, and 1-36 was weighed in a screw tube (Maruemu No. 5; 27 × 55 mm), 0.2 mL of acetone was added thereto, and the screw tube was sealed with a cap to dissolve the compound. The screw tube was rotated and inverted to uniformly coat the drug solution onto the whole inner wall of the tube. After removing the cap, the solution was air-dried for about 2 hours, then unfed nymphal ticks, Haemaphysalis longicornis (5 ticks/group) were released, and the tube was sealed with the cap. After 2 days, the number of dead insects was counted, and the death rate was calculated according to the following equation. Death rate (%) = (Number of dead insects/Number of tested insects) × 100 [formula]

For test [5], the system named is Nilaparvata lugens. The test is described as follows: Test Example 4: drench at foot of rice seedling, Nilaparvata lugens larvae released. To be noted: active ingredient 500 ppm, 5 ml drench at foot of rice seedling, 7 days at 25°C, then third-fourth instar larvae kept 6 days; for mortality at 500 ppm: Nilaparvata lugens, soil, 144 h, read-out: control value.
Test [6] has as its system Adoxophyes orana fasciata. The test is described as follows: Test Example 7: spray on apple tree, Adoxophyes orana fasciata larvae released. To be noted: in Malus domestica, 168 h, active ingredient 500 ppm, 20 mL/cup sprayed on apple tree, first-instar larvae, after 7 days, read-out: death rate. The procedure:
The formulations of Compounds of Present Invention 1-1 to 1-6, 1-10, 1-21, 1-28, 1-31 to 1-34, 1-39 and 1-42 as obtained in Formulation Example 5 were diluted with water, so as to have a concentration of the active ingredient of 500 ppm, to prepare a test spray solution.
On the other hand, an apple tree was planted in a plastic cup, and grown until the seventh-eighth true leaf was spread. To the apple tree was sprayed, at a rate of 20 mL/cup, the test drug solution. After the drug solution was dried, 60 first-instar larvae of Adoxophyes orana fasciata were released, and covered with a plastic cup the bottom of which was cut off and on which a filter paper was put, with the plastic cup cover placed upside-down. After 7 days, the number of dead insects was counted, and the death rate was calculated according to the following equation. Death rate (%) = (Number of dead insects/Number of tested insects) × 100 [formula]

The subject of test [7] is Aphis gossypii. The test is described as follows: Test Example 2: drench at foot of cucumber seedling, later inoculated with Aphis gossypii. To be noted: soil, 144 h, active ingredient 500 ppm, 5 ml drench at foot of cucumber seedling, 7 days at 25°C, then inoculated and kept 6 days, read-out: control value. On the procedure:
(§1) On the other hand, a cucumber seedling (the second true leaf stage) planted in a plastic cup was drenched at its foot with 5 ml of the test drug solution, and kept in a greenhouse at 25°C for 7 days. On the cucumber leaf surface was inoculated about 30 Aphis gossypii (whole stage), and further kept in the greenhouse for 6 days, then the number of surviving Aphis gossypii parasitic on the leaves of the cucumber was examined, and the control value was calculated according to the following equation: Control value (%) = {1-(Cb×Tai)/(Cai×Tb)} × 100 [formula] wherein the symbols represent as follows: • Cb: the number of insects in a non-treated section before treatment • Cai: the number of surviving parasitic insects in a non-treated section on observation • Tb: the number of insects in a treated section before treatment • Tai: the number of surviving parasitic insects in a treated section on observation • wherein the non-treated section refers to a section where the test drug solution prepared by diluting the formulation obtained as in Formulation Example 5 but not containing the compound of the present invention with the same amount of water as in the treated section was sprayed.

Test [8] has as its system Aphis gossypii. The test can be described thus: Test Example 1: foliar spray on cucumber seedling inoculated with Aphis gossypii. To be noted: 144 h, active ingredient 500 ppm, 20 ml sprayed on cucumber seedling, six days after spraying, read-out: control value. The procedure: as §1, with “hand, on” for “hand,”, “first” for “second”, “inoculated” for “drenched at its foot”, “with” for “with 5 ml of the test drug solution, and kept in a greenhouse at 25°C for 7 days. On the cucumber leaf surface was inoculated”, “left for a day. 20 ml of” for “further kept in”, “test drug solution was sprayed on the seedling. Six days after spraying,” for “greenhouse for 6 days, then”

Test [9] concerns Nilaparvata lugens. The test can be described thus: Test Example 3: spray on rice seedling, Nilaparvata lugens larvae released. To be noted: 144 h, active ingredient 500 ppm, 10 ml sprayed on rice seedling, third-fourth instar larvae, after 6 days, read-out: control value.
The mark [10] stands for this setting: active ingredient concentration 3.5 ppm in ion-exchanged water, last-instar larvae, one day later.
The mark [11] stands for this setting: active ingredient 500 ppm, 20 mL/cup sprayed on cabbage, second instar larvae, 25°C for 5 days.

Structures are written as SMILES. Read-outs that look alike come from different tables or passages of the source. Bounds are passed on as bounds.

On to `CCS(=O)(=O)c1cc(C(=O)OC)cnc1-c1nc2cc(C(F)(F)F)cnc2n1C` [Compound of Present Invention 1-1, methyl 5-ethylsulfonyl-6-(3-methyl-6-trifluoromethyl-3H-imidazo[4,5-b]pyridin-2-yl)nicotinate], for which the results for the mortality at 500 ppm in test [1] and in [3] (setting [11]) were 100% and ≥ 80%, respectively. Moreover, the mortality at 3.5 ppm in test [2] (setting [10]) is ≥ 95%.
Consider `CCCOC(=O)c1cnc(-c2nc3cc(C(F)(F)F)cnc3n2C)c(S(=O)(=O)CC)c1` [Compound of Present Invention 1-4, propyl 5-ethylsulfonyl-6-(3-methyl-6-trifluoromethyl-3H-imidazo[4,5-b]pyridin-2-yl)nicotinate], for which, in test [3] (setting [11]), the mortality at 500 ppm is ≥ 80%.
For `CCS(=O)(=O)c1cc(C(=O)OC(C)(C)C)cnc1-c1nc2cc(C(F)(F)F)cnc2n1C` [Compound of Present Invention 1-5, tert-butyl 5-ethylsulfonyl-6-(3-methyl-6-trifluoromethyl-3H-imidazo[4,5-b]pyridin-2-yl)nicotinate], the mortality at 2 mg/tube, 2 mg/tube in test [4] was found to be 100%.
On to `CCS(=O)(=O)c1cc(C(=O)N(C)C)cnc1-c1nc2cc(C(F)(F)F)cnc2n1C` [Compound of Present Invention 1-6, 5-ethylsulfonyl-N,N-dimethyl-6-(3-methyl-6-trifluoromethyl-3H-imidazo[4,5-b]pyridin-2-yl)nicotinamide], for which the mortality at 500 ppm in test [5] was ≥ 90%; in [3] (setting [11]), ≥ 80%. Besides, the mortality at 3.5 ppm in [2] (setting [10]) was ≥ 95%.
With `CCS(=O)(=O)c1cc(C(=O)NN(C)C)cnc1-c1nc2cc(C(F)(F)F)cnc2n1C` [Compound of Present Invention 1-7, 5-ethylsulfonyl-N',N'-dimethyl-6-(3-methyl-6-trifluoromethy 1-3H-imidazo[4,5-b]pyridin-2-yl)nicotinic acid hydrazide], the mortality at 3.5 ppm in test [2] was ≥ 95%. In test [3], the mortality at 500 ppm was ≥ 80%.
As for `CCS(=O)(=O)c1cc(C(=O)N2CCCC2)cnc1-c1nc2cc(C(F)(F)F)cnc2n1C` [Compound of Present Invention 1-8, 5-ethylsulfonyl-6-(3-methyl-6-trifluoromethyl-3H-imidazo[4,5-b]pyridin-2-yl)nicotinoylpyrrolidine], the control value in test [5] was ≥ 90%.
Consider `CCS(=O)(=O)c1cc(C(=O)NC(C)(C)C)cnc1-c1nc2cc(C(F)(F)F)cnc2n1C` [Compound of Present Invention 1-10, N-tert-butyl-5-ethylsulfonyl-6-(3-methyl-6-trifluoromethyl-3H-imidazo[4,5-b]pyridin-2-yl)nicotinamide], for which the mortality at 500 ppm is ≥ 90% in test [6], ≥ 90% in test [5] and ≥ 80% in [3] (setting [11]).
Consider `CCS(=O)(=O)c1cc(C(=O)N2CCOCC2)cnc1-c1nc2cc(C(F)(F)F)cnc2n1C` [Compound of Present Invention 1-13], for which, in [7], the mortality at 500 ppm was ≥ 90%. In test [2] (setting [10]), the mortality at 3.5 ppm was ≥ 95%.
For the compound `CCS(=O)(=O)c1cc(C(=O)N(C)OC)cnc1-c1nc2cc(C(F)(F)F)cnc2n1C` [Compound of Present Invention 1-18, 5-ethylsulfonyl-N-methoxy-N-methyl-6-(3-methyl-6-trifluoromethyl-3H-imidazo[4,5-b]pyridin-2-yl)nicotinamide], the mortality at 500 ppm in test [7], in test [8] and in test [9] was ≥ 90% in each case.
`CCS(=O)(=O)c1cc(C(=O)Nc2ccc(Cl)cc2)cnc1-c1nc2cc(C(F)(F)F)cnc2n1C` [Compound of Present Invention 1-20]: in test [2] (setting [10]), the mortality at 3.5 ppm is ≥ 95%.
In the case of `CCS(=O)(=O)c1cc(C(C)=O)cnc1-c1nc2cc(C(F)(F)F)cnc2n1C` [Compound of Present Invention 1-21, 2-(5-acetyl-3-ethylsulfonylpyridin-2-yl)-3-methyl-6-trifluo romethyl-3H-imidazo[4,5-b] pyridine], the mortality at 500 ppm in [6], in test [7] and in [8] was ≥ 90% throughout.
With `CCS(=O)(=O)c1cc(C(=O)NC2CC2)cnc1-c1nc2cc(C(F)(F)F)cnc2n1C` [Compound of Present Invention 1-24], in [4], the mortality at 2 mg/tube, 2 mg/tube came out at 100%.
`CCS(=O)(=O)c1cc(C(=O)OCC(F)(F)F)cnc1-c1nc2cc(C(F)(F)F)cnc2n1C` [Compound of Present Invention 1-28]: the mortality at 500 ppm in [6] is ≥ 90%. Besides, the mortality at 3.5 ppm in test [2] (setting [10]) was ≥ 95%.
Regarding `CCS(=O)(=O)c1cc(C(=O)OCc2ccccc2)cnc1-c1nc2cc(C(F)(F)F)cnc2n1C` [Compound of Present Invention 1-32], the mortality at 2 mg/tube, 2 mg/tube in test [4] stood at 100%. Further, the mortality at 3.5 ppm in test [2] (setting [10]) was ≥ 95%.
As to `CCS(=O)(=O)c1cc(C(=O)OCCOC)cnc1-c1nc2cc(C(F)(F)F)cnc2n1C` [Compound of Present Invention 1-33], the mortality at 2 mg/tube, 2 mg/tube in test [4] turned out to be 100%.
On the same count and under the same terms, as for `CCS(=O)(=O)c1cc(C(=O)NC2CSC2)cnc1-c1nc2cc(C(F)(F)F)cnc2n1C` [Compound of Present Invention 1-36], the figure is 100%.
With `CCOC(=O)c1cnc(-c2nc3cc([S+]([O-])C(F)(F)F)ccc3o2)c(S(=O)(=O)CC)c1` (centres unmarked) [Compound of Present Invention 1-39], the mortality at 500 ppm in test [6] is ≥ 90%; in [3] (setting [11]), ≥ 80%. Also, the mortality at 3.5 ppm in test [2] (setting [10]) is ≥ 95%.
For the compound `CCS(=O)(=O)c1cc(C(N)=O)cnc1-c1nc2cc([S+]([O-])C(F)(F)F)ccc2o1` (centres unmarked) [Compound of Present Invention 1-41], the mortality at 3.5 ppm in [2] (setting [10]) is ≥ 95%. Moreover, the mortality at 500 ppm in test [3] (setting [11]) is ≥ 80%.

The record behind these values is patent EP2955179A1, “CONDENSED HETEROCYCLIC COMPOUND” (Sumitomo Chemical Company Limited, priority 2013, dated 2014).
